Experimental data reported in US8334377B2, “Porphyrin catalysts and methods of use thereof” (The Trustees of Princeton University, priority 2006, dated 2012).

Experiments:
[1] = Determination of peroxynitrite decomposition catalysis: rates of reaction between peroxynitrite and iron porphyrins in phosphate buffer; assay type: biochemical; settings: phosphate buffer pH=7.4
Procedure: To screen compounds for peroxynitrite decomposition catalytic activity of the invention, peroxynitrite is prepared and isolated as its sodium salt by the reaction of acidic hydrogen peroxide with sodium nitrite followed by rapid quenching with NaOH as set out by Halfpenny and Robinson, in J. Chem. Soc., 928-938 (1952). Peroxynitrite has an absorbance maximum at 302 nm with an extinction coefficient of 1670 M^−1 cm^−1. Therefore, it is possible to directly observe the decomposition of peroxynitrite by monitoring the change in absorbance at 302 nm by stop-flow spectrophotometric analysis. For example, the decomposition of peroxynitrite at an accelerated rate (relative to the natural decomposition rate of peroxynitrite) upon the addition of the decomposition catalysts of the invention.
A high rate of peroxynitrite decomposition is an important indicator of biological activity in vitro and in vivo. The rates of reaction between peroxynitrite and various iron porphyrins were measured at several different concentrations of catalyst in phosphate buffer (pH=7.4). The ONOO^− decay rate (M^−1s^−1) for FeTDMImP was determined to be […], and the keat, for FeTDCMImP was measured at 4.6×10^5. In the same studies the decay rates for the iron porphyrins FeTDMImP, FeTDCMImP, FeTDPImP (see, e.g., U.S. Pat. No. 6,448,239) were 1.1×10^6. 4.6×10^5 and 1.9×10^6, respectively.

[2] = Stopped-flow spectrometry of peroxynitrite decomposition, absorption of peroxynitrite at 324 nm monitored; assay type: biochemical; settings: pH 7.4 phosphate buffer
Procedure: FIG. 4 is stopped-flow spectroscopy of peroxynitrite decomposition catalyzed by FeTDCImP (12). (A) diode array scan of 10 μM (12) in pH 7.4 PBS mixed with 600 μM, t=2 s; (B) decay of peroxynitrite monitored at 324 nm, condition that same as in A. It was fitted into a first order kinetics model using KinetAssyst software. Data was average of four parallel experiments.
It was rationalized that the electron-withdrawing cationic feature elevated its catalytic activity as compared to anionic porphyrins, while its electron-donating anionic feature lowered its catalytic activity as compared to cationic porphyrins.

Compound | decay rates for the iron porphyrins (in the same studies) [1] | keat [1] | second order rate constant of peroxynitrite decomposition [2] [M⁻¹ s⁻¹]
COCCOCCn1cc[n+](CCOCCOC)c1-c1c2nc(c(-c3n(CCOCCOC)cc[n+]3CCOCCOC)c3ccc([n-]3)c(-c3n(CCOCCOC)cc[n+]3CCOCCOC)c3nc(c(-c4n(CCOCCOC)cc[n+]4CCOCCOC)c4ccc1[n-]4)C=C3)C=C2.[Fe+3] [FeTDPImP, iron(III) meso-tetrakis(N,N-di-(2-(2-methoxyethoxy)ethyl)-imidazol-2-yl)porphyrin] | 1.9×10^6 | – | –
iron(III) meso-tetrakis(N,N-dicarboxymethyl)-imidazol-2-yl)porphyrin [FeTDCMImP] | 4.6×10^5 | 4.6×10^5 | 430000
